Reference: ChEMBL document CHEMBL5335870, “Discovery of Hepatitis B Virus Surface Antigen Suppressor GS-8873” (ACS Med Chem Lett, 2024)
Active and inactive are the calls of the source. The rule behind the calls is not given here.

Key:
[1] = Cytotoxicity against rat NRVM cells assessed as inhibition of cell viability measured upto 17 uM incubated for 5 days; type: toxicity, cell-based; details: 120 h, time 5 day
A 172 = experiment: Cytotoxicity against human A-172 cells assessed as inhibition of cell viability measured upto 17 uM incubated for 5 days; type: toxicity, cell-based; details: a 172, 120 h, time 5 day
[2] = Hepatic extraction in cynomolgus monkey; type: ADME, Macaca fascicularis; details: read-out: ERH
Hepatitis B virus [3] = experiment: In vivo antiviral activity against HBV in model of HBV 1.3.32 mouse harboring integrated greater-than-genome-length HBV transgene assessed as plasma HBsAg level measured in off-treatment recovery phase at 50 mg/kg, sc qd treated for 4 weeks (reference value: 1.1 log10 ng/ml); type: functional
[4] = Hepatic extraction in rat; type: ADME; details: read-out: ERH
Huh-7 = experiment: Cytotoxicity against human Huh-7 cells assessed as inhibition of cell viability measured upto 17 uM incubated for 5 days; type: toxicity, cell-based; details: huh-7, 120 h, time 5 day
PBMC = experiment: Cytotoxicity against human PBMC cells assessed as inhibition of cell viability measured upto 17 uM incubated for 5 days; type: toxicity, cell-based; details: 120 h, time 5 day
769-P = experiment: Cytotoxicity against human 769-P cells assessed as inhibition of cell viability measured upto 17 uM incubated for 5 days; type: toxicity, cell-based; details: 120 h, time 5 day
[5] = system: Woodchuck hepatitis virus; experiment: Antiviral activity against WHV-infected Woodchucks assessed as reduction in WHV sAg level in plasma at 15 mg/kg, po qd for 12 weeks; type: functional
[6] = In vivo clearance in cynomolgus monkey; type: ADME, organism-based, Macaca fascicularis
Primary hepatocyte [7] = experiment: Effect on cccDNA level in HBV infected primary human hepatocyte at 0.25 uM media replaced for every 2 to 3 days incubated for 12 days by Southern blot analysis; type: functional, cell-based; details: Hepatitis B virus, time 12.0 day
Hepatitis B virus [8] = experiment: Antiviral activity against genotype E HBV infected in primary human hepatocyte assessed as reduction in […] replaced for every 2 to 3 days incubated for 12 days by multiplex chemiluminescent MSD assay; type: functional, organism-based; details: time 12.0 day
A204 = experiment: Cytotoxicity against human A204 cells assessed as inhibition of cell viability measured upto 17 uM incubated for 5 days; type: toxicity, cell-based; details: a204, 120 h, time 5 day
A-375 = experiment: Cytotoxicity against human A-375 cells assessed as inhibition of cell viability measured upto 17 uM incubated for 5 days; type: toxicity, cell-based; details: a-375, 120 h, time 5 day
[9] = In vivo clearance in rat; type: ADME, organism-based
J82 = experiment: Cytotoxicity against human J82 cells assessed as inhibition of cell viability measured upto 17 uM incubated for 5 days; type: toxicity, cell-based; details: j82, 120 h, time 5 day
SK-N-AS = experiment: Cytotoxicity against human SK-N-AS cells assessed as inhibition of cell viability measured upto 17 uM incubated for 5 days; type: toxicity, cell-based; details: 120 h, time 5 day
Hepatitis B virus [10] = experiment: Antiviral activity against HBV infected in primary human hepatocyte assessed as reduction in intracellular HBsAg protein at 250 nM media replaced for every 2 to 3 days incubated for 14 days by immunofluorescence microscopy; type: functional, organism-based; details: time 14.0 day
A498 = experiment: Cytotoxicity against human A498 cells assessed as inhibition of cell viability measured upto 17 uM incubated for 5 days; type: toxicity, cell-based; details: a498, 120 h, time 5 day
Hepatitis B virus [11] = experiment: Antiviral activity against HBV genome D integrated human HepAD38 cells assessed as reduction in extracellular HBsAg media replaced for every 2 to 3 days incubated for 7 days […]; type: functional, organism-based; details: time 7.0 day
MRC5 = experiment: Cytotoxicity against human MRC5 cells assessed as inhibition of cell viability measured upto 17 uM incubated for 5 days; type: toxicity, cell-based; details: mrc5, 120 h, time 5 day
HepG2 = experiment: Cytotoxicity against human HepG2 cells assessed as inhibition of cell viability measured upto 17 uM incubated for 5 days; type: toxicity, cell-based; details: hepg2, 120 h, time 5 day
AN3-CA = experiment: Cytotoxicity against human AN3-CA cells assessed as inhibition of cell viability measured upto 17 uM incubated for 5 days; type: toxicity, cell-based; details: 120 h, time 5 day
Hepatitis B virus [12] = experiment: Antiviral activity against genotype C HBV infected in primary human hepatocyte assessed as reduction in […] replaced for every 2 to 3 days incubated for 12 days by multiplex chemiluminescent MSD assay; type: functional, organism-based; details: time 12.0 day
PC-3 = experiment: Cytotoxicity against human PC-3 cells assessed as inhibition of cell viability measured upto 17 uM incubated for 5 days; type: toxicity, cell-based; details: pc-3, 120 h, time 5 day
Hepatitis B virus [13] = experiment: Antiviral activity against genotype B HBV infected in primary human hepatocyte assessed as reduction in […] replaced for every 2 to 3 days incubated for 12 days by multiplex chemiluminescent MSD assay; type: functional, organism-based; details: time 12.0 day
[14] = Oral bioavailability in rat at 5 mg/kg; type: ADME, organism-based; details: in vivo
Hepatitis B virus [15] = experiment: Antiviral activity against genotype D (AD38-derived) HBV infected in primary human hepatocyte assessed as inhibition of extracellular HBsAg media replaced for every 2 to 3 days incubated for 12 days by multiplex chemiluminescent MSD assay; type: functional; details: time 12 day
[16] = Clearance in Sprague-Dawley rat at […], iv measured after 24 hrs by LC/MS/MS method; type: ADME, organism-based; details: in vivo
ASPC1 = experiment: Cytotoxicity against human AsPC1 cells assessed as inhibition of cell viability measured upto 17 uM incubated for 5 days; type: toxicity, cell-based; details: aspc1, 120 h, time 5 day
Primary hepatocyte [17] = experiment: Effect on cccDNA level in HBV infected primary human hepatocyte at 0.25 uM media replaced for every 2 to 3 days incubated for 12 days in presence of Tenofovir by Southern blot analysis; type: functional, cell-based; details: Hepatitis B virus, time 12.0 day
[18] = Hepatic extraction in dog; type: ADME, Canis lupus familiaris; details: read-out: ERH
[19] = Lipophilicity, logD of the compound; type: physicochemical; details: octanol/water
[20] = Oral bioavailability in Sprague-Dawley rat after 24 hrs by LC/MS/MS method; type: ADME, organism-based; details: in vivo
[21] = Oral bioavailability in dog at 5 mg/kg; type: ADME, organism-based, Canis lupus familiaris; details: in vivo
[22] = In vivo clearance in dog; type: ADME, organism-based, Canis lupus familiaris
Hepatocyte = experiment: Cytotoxicity against primary human hepatocyte assessed as change in cell morphology; type: toxicity, cell-based; details: hepatocytes
Hepatitis B virus [23] = experiment: Antiviral activity against genotype D HBV infected in sodium taurocholate co-transporting polypeptide receptor-expressing stable HepG2 cell line assessed as suppression of HBsAg level incubated for 5 days by multiplex chemiluminescent MSD assay; type: functional, organism-based; details: HepG2, 120 h
Hepatitis B virus [24] = experiment: In vivo antiviral activity against HBV in model of HBV 1.3.32 mouse harboring integrated greater-than-genome-length HBV transgene assessed as reduction in plasma HBsAg level at 50 mg/kg, sc qd treated for 4 weeks (reference value: 1.1 log10 ng/ml); type: functional
[25] = Oral bioavailability in cynomolgus monkey at 5 mg/kg; type: ADME, organism-based, Macaca fascicularis; details: in vivo
OVCAR-3 = experiment: Cytotoxicity against human OVCAR-3 cells assessed as inhibition of cell viability measured upto 17 uM incubated for 5 days; type: toxicity, cell-based; details: ovcar-3, 120 h, time 5 day
MG-63 = experiment: Cytotoxicity against human MG-63 cells assessed as inhibition of cell viability measured upto 17 uM incubated for 5 days; type: toxicity, cell-based; details: mg-63, 120 h, time 5 day
MT4 = experiment: Cytotoxicity against human MT4 cells assessed as inhibition of cell viability measured upto 17 uM incubated for 5 days; type: toxicity, cell-based; details: mt4, 120 h, time 5 day
Hepatitis B virus [26] = experiment: Antiviral activity against HBV genome D integrated human HepG2.2.15 cells assessed as reduction in extracellular HBsAg media replaced for every 2 to 3 days incubated for 7 days; type: functional, organism-based; details: time 7.0 day
Hepatitis B virus [27] = experiment: Antiviral activity against genotype A HBV infected in primary human hepatocyte assessed as reduction in […] replaced for every 2 to 3 days incubated for 12 days by multiplex chemiluminescent MSD assay; type: functional, organism-based; details: time 12.0 day

COCCCOc1cc2c(cc1Cl)-c1cc(=O)c(C(=O)O)cn1N(C(C)(C)C)C2
Activity [1]: Non-Toxic
Activity (A 172): Non-Toxic
hepatic extraction ratio [2]: 0.02
Activity (Hepatitis B virus [3]): 0.7 log10ng/ml
hepatic extraction ratio [4]: 0.043
Activity (Huh-7): Non-Toxic
Activity (PBMC): Non-Toxic
Activity (769-P): Non-Toxic
Activity [5]: 1.4 log10ng/ml
clearance [6]: 0.533 mL/min/kg
Activity (Primary hepatocyte [7]): inactive
Activity (Hepatitis B virus [8]): Active
Activity (A204): Non-Toxic
Activity (A-375): Non-Toxic
clearance [9]: 3 mL/min/kg
Activity (J82): Non-Toxic
Activity (SK-N-AS): Non-Toxic
Activity (Hepatitis B virus [10]): Active
Activity (A498): Non-Toxic
Activity (Hepatitis B virus [11]): Active
Activity (MRC5): Non-Toxic
Activity (HepG2): Non-Toxic
Activity (AN3-CA): Non-Toxic
Activity (Hepatitis B virus [12]): Active
Activity (PC-3): Non-Toxic
Activity (Hepatitis B virus [13]): Active
bioavailability [14]: > 100%
inhibition (INH) (Hepatitis B virus [15]): 85%
clearance [16]: 19.7 mL/min/kg
Activity (ASPC1): Non-Toxic
Activity (Primary hepatocyte [17]): inactive
hepatic extraction ratio [18]: 0.072
logD [19]: 2
bioavailability [20]: 109%
bioavailability [21]: > 100%
clearance [22]: 2.17 mL/min/kg
Activity (Hepatocyte): Non-Toxic
EC50 (Hepatitis B virus [23]): 5.8 nM
Activity (Hepatitis B virus [24]): 2.2 log10ng/ml
bioavailability [25]: 48%
Activity (OVCAR-3): Non-Toxic
Activity (MG-63): Non-Toxic
Activity (MT4): Non-Toxic
Activity (Hepatitis B virus [26]): Active
Activity (Hepatitis B virus [27]): Active
